Data as given in patent US20240425571A1, “GLYCOPROTEIN A REPETITIONS PREDOMINANT (GARP)-BINDING ANTIBODIES AND USES THEREOF” (OHIO STATE INNOVATION FOUNDATION, priority 2021, published 2024).

Columns and labels:
B16-F1 melanomas = assay: B16-F1 melanoma, adoptive T cell therapy with anti-platelet agents; type: in vivo, mouse; details: for anti-tumor effect: aspirin and clopidogrel added to Cy, no T cells; for antigen-specific T cells in blood, ILNs and spleens: aspirin and clopidogrel concurrent with ACT; for efficacy and relapse-free survival: aspirin and clopidogrel plus Cy and adoptive Pmel T cell transfer
[1] = tested on: MB-49 Bladder Cancer cells; assay: MB-49 bladder cancer model in hLRRC32KI mice; details: FTY720 2 mg/kg every two days, 6 doses, with PIIO-1
Protocol: A. 1×10^5 MB-49 Bladder Cancer cells were injected s.c. on the right flank of hLRRC32KI mice. […] Representative tumor curve. B. 1×10^5 MB-49 Bladder cancer cells were injected s.c. on the right flank of hLRRC32KI mice. […] Tumors were collected and perform flow cytometry on day 10. Frequency of CD8+ T cells as a proportion of live CD45+ lymphocytes (left). 1×10^5 MB-49 Bladder Cancer cells were injected s.c. on the right flank of hLRRC32KI mice. […] Tumors were collected and perform flow cytometry on day 22. […] C. Frequency of CD25+Foxp3^+ Tregs in CD4+ tumor-infiltrating T cells (left). […] UMAP dimension reduction of tumor-infiltrating CD8+ T cells from B after staining with 33 markers and spectral flow cytometry analysis. Shown is the data gated on live CD45+CD3+CD8+ T cells, subsampled on 5000 cells per sample Unsupervised clustering analysis was done using FlowSOM algorithm with an elbow method approach for cluster number determination. E. Heatmap of D showing expression levels of indicated markers by each cluster. […] Cluster differences were measured by two-tailed Student's t test.
A. Experimental scheme. […] Overall survival is analyzed by log-rank (Mantel-Cox) test. […]
A. 1×10^5 MB-49 Bladder Cancer cells were injected s.c. in the right flank of hLRRC32KI mice. […] B. Quantification of panel A. 1×10^5 MB-49 Bladder Cancer cells were injected s.c. on the right flank of hLRRC32KI mice. […]

[2] = tested on: platinum resistant advanced NSCLC; assay: POPLAR database analysis by LRRC32 (GARP) expression; type: in vivo, human; details: for OS or disease control rate, Atezolizumab vs docetaxel: patients with high GARP expression
Source text: Mechanistically, PD-1 blockade works primarily by targeting the progenitor exhausted population of CD8^+ T cells in the TME (TCF-1 expressing, SlamF6 expressing, PD-1 intermediate to low expressing). These cells deliver the proliferative burst following treatment resulting in increased differentiation to the terminal exhausted population, which is responsible for tumor clearance. […] Thus, we hypothesized GARP expression can contribute to PD-1/L1 ICB resistance. To address this hypothesis, we first mined the POPLAR database which compared PD-L1 blockade Atezolizumab with chemotherapy (i.e., docetaxel) for the platinum resistant advanced NSCLC. In this multi-center international phase II trial, bulk RNAseq data from pre-treatment tumors were available for 86 patients enrolled primarily in the US sites. We divided these patients into GARP high and low expression group with median expression level of LRRC32 transcript as the cutoff. […] To further address this hypothesis, we tested the combination therapy of anti-GARP antibody huPIIO-1 and PD-1 blockade in murine Lewis Lung Carcinoma (LLC) and CMT-167 lung cancer models, both of which are considered immunologically cold tumors with resistance to single agent PD-1 ICB. To do so, the human GARP KI mice were challenged with LCC followed by treatment with 200 μg/mouse of Isotype, huPIIO-1, anti-PD-1 antibody, or a combination of huPIIO-1 and PD-1 every 3 days starting on day 8 post tumor challenge for a total of 4 injections.

Baculovirus = Baculovirus (BV) ELISA for non-specific binding
Protocol: Baculovirus (BV) ELISA was employed as a preliminary assay to evaluate antibody's potential nonspecific binding risk.
In Baculovirus (BV) ELISA, the inventor used Rituxan Mab as reference. […] If a clone only has binding on BV, but not on 293 cells, it will be considered as having a low risk of non-specific binding.
Methods—Baculovirus ELISA. Plates are coated with 50 μl of 1:500 diluted Baculovirus sample in PBS in each well. Plates are kept at 4° C. for overnight. The plates are washed with 300 μL of wash buffer ×3 and 200 μl blocking buffer (1% BSA) is added at RT for 60 min. Plates are washed with 300 μl of wash buffer ×3 and 100 μl of diluted Abs are added at different concentrations/well, followed by RT incubation for 1 hr. Plates are washed with 300 μl of wash buffer ×6 and 100 μl of 1:5000 HRP conjugated second Ab in PBS is added followed by RT incubation for 1 hr. The plates are washed with 300 μl of wash buffer ×6. Developing buffer is added and the plate is read.

[3] = patients with low GARP expression

## O=P1(N(CCCl)CCCl)NCCCO1 (stereo not drawn) [Cy, cyclophosphamide]
B16-F1 melanomas; Cy alone
  tumor control: failed to control tumors

## CCCCCCCCc1ccc(CCC(N)(CO)CO)cc1 [FTY720]
[1]
  effect of FTY720 on anti-tumor efficacy of PIIO-1 and T cell infiltration: abrogated the anti-tumor efficacy of PIIO-1 and effectively blocked T cell infiltration

## CC(=O)Oc1ccccc1C(=O)O [aspirin]
B16-F1 melanomas
  anti-tumor effect: no anti-tumor effects
  antigen-specific T cells in blood, ILNs and spleens: sustained at higher numbers
  efficacy and relapse-free survival: highly effective against B16-F1 with relapse-free survival of most mice beyond 3 months

## COC(=O)[C@H](c1ccccc1Cl)N1CCc2sccc2C1 [clopidogrel]
B16-F1 melanomas
  anti-tumor effect: no anti-tumor effects
  antigen-specific T cells in blood, ILNs and spleens: sustained at higher numbers
  efficacy and relapse-free survival: highly effective against B16-F1 with relapse-free survival of most mice beyond 3 months

## CC(=O)O[C@@]12CO[C@@H]1C[C@H](O)[C@@]1(C)C(=O)[C@H](O)C3=C(C)[C@@H](OC(=O)[C@H](O)[C@@H](NC(=O)OC(C)(C)C)c4ccccc4)C[C@@](O)([C@@H](OC(=O)c4ccccc4)[C@H]21)C3(C)C [docetaxel]
[2]
  OS or disease control rate, Atezolizumab vs docetaxel: did not demonstrate any difference
[2]; [3]
  disease control rate: 9.5%

## Atezolizumab: PD-L1 blockade
[2]
  OS or disease control rate, Atezolizumab vs docetaxel: did not demonstrate any difference
[2]; [3]
  disease control rate: 68.2%
[2]; patients with low GARP expression, p=0.086
  overall survival HR, Atezolizumab vs docetaxel: 1.89

## Rituxan: Rituxan Mab used as reference in BV ELISA [reference compound]
Baculovirus; Ab. Conc. 0.15625 ug/ml
  BV ELISA with purified IgG, raw BV binding data: 12.1
Baculovirus; Ab. Conc. 0.3125 ug/ml
  BV ELISA with purified IgG, raw BV binding data: 13.7
Baculovirus; Ab. Conc. 0.625 ug/ml
  BV ELISA with purified IgG, raw BV binding data: 13.7
Baculovirus; Ab. Conc. 1.25 ug/ml
  BV ELISA with purified IgG, raw BV binding data: 13.0
Baculovirus; Ab. Conc. 2.5 ug/ml
  BV ELISA with purified IgG, raw BV binding data: 17.0
Baculovirus; Ab. Conc. 5 ug/ml
  BV ELISA with purified IgG, raw BV binding data: 22.7
Baculovirus; Ab. Conc. 10 ug/ml
  BV ELISA with purified IgG, raw BV binding data: 66.0
Baculovirus; Ab. Conc. 20 ug/ml
  BV ELISA with purified IgG, raw BV binding data: 98.8
